Key:
HIV/AIDS patients = assay: Naltrexone as adjunct therapy, 50 HIV patients in Africa; type: in vivo, human
Source text: Naltrexone as an adjunct therapy with HIV/AIDS patients. […] HIV disease is associated with a new constellation of problems, generally referred to as “non-AIDS morbidity”, and, in the popular press, “premature aging. […] at risk for developing a number of non-AIDS conditions, including cardiovascular disease, cancer, kidney disease, liver disease, osteopenia/osteoporosis and neurocognitive disease (collectively referred to as “serious non-AIDS events”). Malignancies associated with infections such as human papilloma virus (including uro-genital and head and neck cancers), Epstein Barr Virus (including Hodgkins disease), and hepatitis B and C (hepatocellular carcinoma), are also relatively common in HIV-infected adult. […] Subtle elevations in many of these biomarkers are associated with dramatic increases in the risk of subsequent disease, including all-cause mortality For example, as compared to a well-matched uninfected population, treated HIV-infected adults have approximately 50 to 100% higher levels of the inflammatory cytokine interleukin-6 (IL-6)^(32). […] Risk factors for impaired CD4 T-cell recovery include low pre-treatment CD4+ T cell count nadir, co-infection with other viruses such as hepatitis C, older age, and perhaps viral factors(24). Suboptimal treatment-mediated CD4+ T cell outcomes likely have clinical consequences given the consistent association between CD4+ T cell counts during ART and elevated risk of many co-morbidities (e.g., heart disease, cancer) and all-cause mortality. Chronic signaling through the interferon-alpha pathway may contribute to this inflammatory disease^(32), as can the impact of virus production/entry (without productive infection) on pyroptosis, which is a highly inflammatory process that can cause death of affected and neighboring cells. The frequency of activated T cells remains elevated during chronic treatment and appears related to size of the HIV reservoir and pace of immune reconstitution although the effect of this marker in predicting overall morbidity and mortality is not as strong as some of the innate immune system inflammatory markers^(37).
We believe that long term monitoring of patients will show a reduction in non-AIDS morbidity.

colon cancer = assay: Case report, stage 4 colon cancer; type: in vivo, human
Source text: A person diagnosed with stage 4-colon cancer, 2007 which had spread to their lungs and liver, they removed 40% of their colon and began a round of chemotherapy and three surgeries removed 40% of their colon, half is their right lung and 75% of their liver. During the next 18 months received 47 weeks of chemotherapy (a combination of 4 chemo drugs at once).

autism [1] = assay: 10 studies of naltrexone in 155 children with autism; type: in vivo, human
Source text: 155 children participated in 10 studies; 27 received placebo.

autism [2] = assay: Randomized, double blind, placebo-controlled study in autism; type: in vivo, human
Hepatitis B = assay: Case report, Hepatitis B; type: in vivo, human
Crohn's disease = assay: Pilot clinical trial in children with moderate to severe Crohn's disease; type: in vivo, human
Procedure: A pilot clinical trial was conducted in children with moderate to severe Crohn's disease. Fourteen subjects with a mean age of 12.3 years (range, 8 to 17 y) were enrolled. […] Safety and toxicity were monitored by physical examinations and blood chemistries. Clinical activity was assessed by the Pediatric Crohn's Disease Activity Index (PCDAI) and Quality of life was monitored by the Impact III survey.

fibromyalgia = assay: Study in ten women with fibromyalgia; type: in vivo, human
Source text: Baseline erythrocyte sedimentation rate predicted over 80% of the variance in drug response. […] Which confirms the ability of Immediate release naltrexone to decree pain and inflammation.

Shingles = assay: Case report, shingles; type: in vivo, human; conditions: person; 4.5 mg nightly since 2013
Procedure: A person diagnosed with Shingles in 2010 over 18 months had 8 major outbreaks, and was treated with acyclovir, and valacyclovir, as the outbreaks continued they prescribed Lidocaine patches and pain medications.

MS patients = assay: Retrospective chart review of MS patients receiving LDN; type: in vivo, human
Source text: This study investigated the safety, tolerability, and benefits (fatigue, reduction) of LDN in patients with MS. It reviewed the number of patients who stopped taking LDN and if there were specific reasons for stopping the LDN. The frequency and variety of side effects that were specific to LDN use are reported. […] 1, 2005 and May 31, 2012. There were 215 MS patients having exposure to LDN during the time of this study. […] In addition to the assessment we review Brain MRIs and Spinal Cord MRIs that were obtained as part of the clinical status of the patient and standard of care.
It reviewed the number of patients who stopped taking IMMEDIATE RELEASE NALTREXONE (LDN) and if there were specific reasons for stopping the IMMEDIATE RELEASE NALTREXONE (LDN). […] 1, 2005 and May 31, 2012. […] In addition to the assessment we review Brain Mills and Spinal Cord MRIs that were obtained as part of the clinical status of the patient and standard of care.

patients with AIDS = conditions: cited from earlier work
Systemic Lupus = assay: Case reports, systemic lupus; conditions: person
[3] = system: pancreatic cancer cells: MIA-PaCa2, PANC1, and BxPC3; assay: Continuous 48 h exposure to naltrexone, pancreatic cancer cells
[4] = of the 128 that received naltrexone
[5] = 3.0 mg daily at bedtime, 12 weeks, vs placebo

In the case of `O=C1CC[C@@]2(O)[C@H]3Cc4ccc(O)c5c4[C@@]2(CCN3CC2CC2)[C@H]1O5` [Immediate release naltrexone, naltrexone], the opportunistic infection (HIV/AIDS patients; long term) was “reduction”, the quality of life (HIV/AIDS patients; long term) was “higher” and the Th1/Th2 balance (HIV/AIDS patients; with standard of care (ART)) was “shift from Th1 (pro-inflammatory) to Th2 (anti-inflammatory)”. The inflammatory cytokine (HIV/AIDS patients; with standard of care (ART)) was “Secreased”, the “completion of chemotherapy protocol” value (colon cancer; person, 4.5 mg nightly with chemotherapy) was “without any major side effects” and the “scans every six months” value (colon cancer; until June of 2015) was “cancer free”. For the same molecule, the side effects (autism [1]; in vivo) was “mild”, the tolerability (autism [1]; in vivo) was “generally well tolerated” and the “children with statistically significant improvement in irritability and hyperactivity” value (autism [1]; [4]) was 77%. The “children with statistically significant improvement in irritability and hyperactivity, number” value (autism [1]; [4]) was 98, the Actometer readings (autism [2]; children very active at baseline) was “improved in two children” and the “Changes in parent measures (CGI, Conners Impulsivity-Hyperactivity Factor, SE-Restlessness) and Teacher CGI” value (autism [2]; in vivo) was “achieved statistical significance”. The “subjects improved in two or more settings” value (autism [2]; in vivo) was “Eight of 13”, the ALT/AST (Hepatitis B; child, 1 mg) was “decreased to normal” and the viral load (Hepatitis B; child, 1 mg, within one month, from 59.2 million) was 53,000. The serology (Hepatitis B; within 7 months) was “Sero-conversion to negative antigens and positive antibodies”, the viral load (Hepatitis B; within 7 months) was 551 and the PCDAI score (Crohn's disease; 0.1 mg/kg orally, 8-week course, pretreatment 34.2±3.3, P=0.005) was 21.7±3.9. For the same molecule, the “Systemic and social quality of life (Impact III)” value (Crohn's disease; P=0.035) was “improved”, the “improved with mild disease activity (decrease in PCDAI score by at least 10 points)” value (Crohn's disease; end of the study) was 67% and the “in remission (score≦10)” value (Crohn's disease; end of the study) was “Twenty-five”. The tolerability (Crohn's disease; oral) was “well tolerated without any serious adverse events”, the “reduction of fibromyalgia symptoms over placebo” value (fibromyalgia; 4.5 mg, entire cohort) was “greater than 30%” and the “Side effects (including insomnia and vivid dreams)” value (fibromyalgia; in vivo) was “rare”. For the same molecule, the “mechanical and heat pain thresholds” value (fibromyalgia; laboratory visits) was “improved”, the shingles outbreaks (Shingles) was “not had a single outbreak” and the “quality of life surveys: patients improved” value (MS patients; human, in vivo) was 83 patients. For the same molecule, the “quality of life surveys: patients stable” value (MS patients; human, in vivo) was 92 patients, the “quality of life surveys: patients worse” value (MS patients; human, in vivo) was 9 and the “MRI scans showed improvement” value (MS patients; of 215 patients) was 14. The MRI scans stable (MS patients; of 215 patients) was 113, the “MRI scans slightly worse” value (MS patients; of 215 patients, new but inactive lesion(s)) was 28 and the quality of life (MS patients; over a long period of time) was “improvement”. The “elevated levels of serum alpha interferon (IFN-α)” value (patients with AIDS; 1.75 mg nightly, 3-month double-blind period, vs placebo p<0.01) was “significant drop”, the lymphocyte mitogen responses (patients with AIDS; [5]) was “declined on placebo and not on Immediate release naltrexone” and the “pathologically elevated levels of acid-labile alpha interferon” value (patients with AIDS; [5]) was “declined significantly”. For the same molecule, the “incidence of opportunistic infections” value (patients with AIDS; 3.0 mg daily at bedtime, 12 weeks, placebo 5 out of 16 (31%)) was 0 of the 22, the “survival of patients who did not show a decline in IFN-a” value (patients with AIDS; 2 of the 15) was 13% and the “survival of patients who showed a decline in IFN-a” value (patients with AIDS; Nineteen of the 23) was 83%. For the same molecule, the “mean IFN-a level after decline” value (patients with AIDS; from mean of 144.9 IU. over a 12-month period, 23 patients) was 11.0 IU, the side effects (patients with AIDS; human, in vivo) was “No side effects were noted” and the mobility (Systemic Lupus; 3 mg, within three weeks) was “improved mobility”. The hospital stays (Systemic Lupus; 4.5 mg, since March of 2013) was “no hospital stays”, the ANA (Systemic Lupus; for 7 years) was “normal” and the Lupus status (Systemic Lupus; liquid form titrated from 0.1 mg to 1.5 mg) was “in remission”. For the same molecule, the tolerability (Systemic Lupus; started at 1.5 mg) was “unable to take it due to insomnia and pruritis” and the “effect on pancreatic cancer cells” value [3] was “no effect”.

Source: patent US20170239239A1, “Method for Inducing a Sustained Immune Response” (Immune Therapeutics Inc., priority 2016, published 2017)
